Laboratory results taken from ChEMBL document CHEMBL1201862, “PubChem BioAssay data set” (2004).
Calls of active or inactive are those of the source.

Experiments:
[1] = luciferase reporter signal suppression in cells – H4 neuroglioma cells, luminescence, dose response (AID 1990); assay type: functional, cell-based
[2] = Luminescence Cell-Based Dose Response HTS to Identify Inhibitors of 5'UTR Stem-Loop Driven Prion Protein mRNA Translation in H4 Neuroglioblastoma Cells. [Related pubchem assays: 1827 (Project Summary), 1813 (Primary HTS)]; assay type: functional
[3] = alpha-synuclein stem-loop luciferase translation blockers – H4 neuroglioma cells, luminescence, confirmation (AID 1988); assay type: functional, cell-based
[4] = target: T1, Polyadenylate-binding protein 1 (Homo sapiens, UniProt P11940); assay: MLLE binding blockers, Cy5 peptide tracer – biochemical, fluorescence polarization, Cy5-PAM2 peptide, secondary, miRNA deadenylation inhibitor project, dose response (AID 602260); assay type: functional; conditions: read-out: IC50_Mean
T1 sequence (P11940 whole entry, the tested form may be a part): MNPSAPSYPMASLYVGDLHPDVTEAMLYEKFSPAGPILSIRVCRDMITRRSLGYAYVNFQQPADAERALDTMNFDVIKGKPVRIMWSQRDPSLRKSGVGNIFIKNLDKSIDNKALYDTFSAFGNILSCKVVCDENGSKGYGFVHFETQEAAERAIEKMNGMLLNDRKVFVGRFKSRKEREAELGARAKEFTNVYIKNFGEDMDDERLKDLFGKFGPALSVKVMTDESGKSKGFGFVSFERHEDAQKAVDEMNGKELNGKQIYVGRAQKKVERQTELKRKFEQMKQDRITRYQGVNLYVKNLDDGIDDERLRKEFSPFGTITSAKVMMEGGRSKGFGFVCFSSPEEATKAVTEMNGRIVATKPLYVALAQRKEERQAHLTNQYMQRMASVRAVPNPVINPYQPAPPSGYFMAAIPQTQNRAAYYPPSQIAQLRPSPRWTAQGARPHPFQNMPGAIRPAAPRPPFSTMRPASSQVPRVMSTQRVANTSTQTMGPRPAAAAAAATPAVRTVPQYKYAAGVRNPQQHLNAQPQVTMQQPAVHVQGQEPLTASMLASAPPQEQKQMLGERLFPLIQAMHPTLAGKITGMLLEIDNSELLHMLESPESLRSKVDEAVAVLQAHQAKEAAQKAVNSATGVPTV

[5] = target: T1, Polyadenylate-binding protein 1; assay: MLLE domain peptide-binding blockers, IC50 – biochemical, fluorescence polarization, FITC-PAM2 peptide, dose response (AID 602259); assay type: functional; conditions: read-out: IC50_Mean
[6] = NIH-3T3 fibroblast cytotoxicity, dose response, cytotoxicity control, cell-based, fluorescence, Alamar Blue, secondary assay (AID 2327); assay type: functional;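 also: NIH-3T3 mouse fibroblasts cultured with fluconazole at 8 µg/mL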
[7] = fluconazole-exposed Candida albicans growth modulators – fluorescence, retest, confirmation (AID 2467); assay type: functional, cell-based
[8] = cells; assay type: functional
[9] = system: Streptococcus sp. 'group A'; assay: Streptococcus pyogenes SK(-)GAS viability under kanamycin – luminescence, BacTiterGlo, confirmation, counter-screen for streptokinase expression inhibitor project, dose response (AID 1900); assay type: functional, organism-based
[10] = target: T2, Streptokinase A (Streptococcus pyogenes serotype M1, UniProt P10520); assay: viability-normalized secreted streptokinase activity reduction – plasminogen activation absorbance, OD405, dose response (AID 1914); assay type: functional, Streptococcus pyogenes M1 GAS;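 also: secreted streptokinase activity via plasminogen activation per viability signal from cell pellet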
T2 sequence (P10520 whole entry): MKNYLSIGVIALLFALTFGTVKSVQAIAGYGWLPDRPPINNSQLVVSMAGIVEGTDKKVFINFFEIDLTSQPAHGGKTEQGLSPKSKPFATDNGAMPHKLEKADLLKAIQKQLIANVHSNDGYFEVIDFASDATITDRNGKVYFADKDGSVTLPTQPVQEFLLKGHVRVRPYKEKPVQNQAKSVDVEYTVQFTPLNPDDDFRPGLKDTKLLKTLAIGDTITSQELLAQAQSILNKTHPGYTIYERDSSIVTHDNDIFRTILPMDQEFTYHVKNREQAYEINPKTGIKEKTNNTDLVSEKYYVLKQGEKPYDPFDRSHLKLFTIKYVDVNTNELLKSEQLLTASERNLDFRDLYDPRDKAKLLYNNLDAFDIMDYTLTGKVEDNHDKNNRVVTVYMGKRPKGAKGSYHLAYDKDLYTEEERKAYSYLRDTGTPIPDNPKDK

[11] = system: Streptococcus; assay: GAS UMAA2166 growth inhibition – luminescence, BacTiterGlo, counter-screen for streptokinase expression inhibitor project, dose response (AID 1915); assay type: functional, organism-based;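 also: potency for reduction of bacterial viability or growth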
[12] = reduction of Shn3 3'UTR-driven luciferase in osteoblasts – cell-based, Clone20 osteoblasts, firefly luciferase, cherry-picked, dose response (AID 624132); assay type: functional;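 also: firefly luciferase luminescence from reporter carrying the Shn3 3'UTR in osteoblasts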
[13] = loss of viability in HepG2 cells – cell-based, CellTiter-Glo, cherry-picked, cytotoxicity control for Shn3 inhibitor project, dose response (AID 624134); assay type: functional
[14] = non-specific 3'UTR reporter inhibition in Clone20-Shn3RL – cell-based, Renilla luciferase, cherry-picked, counter-screen for Shn3 inhibitor project, dose response (AID 624133); assay type: functional
[15] = viability of PTEN-deleted HCT116 cells – cell-based, HCT116 PTEN knockout, dose response (AID 1047); assay type: functional;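 also: HCT116 colon tumor cells with PTEN knocked out; cells exposed to compound for 60 hours before readout; potency for loss of cell viability measured by luminescence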
[16] = viability of HCT116 lacking mutant beta-catenin – cell-based, human colon tumor, dose response (AID 1045); assay type: functional;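 also: HCT116 colon tumor cells with beta catenin knocked out; cells exposed to compound for 60 hours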
[17] = system: INS1; assay: INS-1E survival protection against cytokine death – cell-based, luminescence, retest, dose response (AID 449756); assay type: functional; conditions: Rattus norvegicus;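 also: cell death triggered by IL-1 beta plus TNF-alpha plus IFN-gamma mixture; protective hits raise ATP signal compared with cytokine alone wells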
[18] = target: T3, RNA-binding protein pos-1 (Caenorhabditis elegans, UniProt G5EF15); assay: disruptors of C. elegans POS-1 RNA interaction – biochemical, fluorescence polarization, dose response (AID 1964);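 also: purified POS-1 fused to maltose binding protein made in E. coli; potency of compounds blocking POS-1 binding to fluorescent RNA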
T3 sequence (G5EF15 whole entry): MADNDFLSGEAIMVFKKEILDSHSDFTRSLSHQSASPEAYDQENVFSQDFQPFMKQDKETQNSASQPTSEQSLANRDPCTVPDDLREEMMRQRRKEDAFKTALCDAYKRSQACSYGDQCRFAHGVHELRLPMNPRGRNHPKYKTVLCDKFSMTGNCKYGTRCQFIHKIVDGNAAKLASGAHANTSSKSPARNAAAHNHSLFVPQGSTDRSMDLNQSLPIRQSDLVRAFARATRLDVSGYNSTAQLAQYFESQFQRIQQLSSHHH

[19] = target: T4, Zinc finger protein mex-5 (Caenorhabditis elegans, UniProt Q9XUB2); assay: potency of MEX-5 RNA-binding blockers – biochemical, C. elegans, fluorescence polarization, dose response (AID 1960)
T4 sequence (Q9XUB2 whole entry): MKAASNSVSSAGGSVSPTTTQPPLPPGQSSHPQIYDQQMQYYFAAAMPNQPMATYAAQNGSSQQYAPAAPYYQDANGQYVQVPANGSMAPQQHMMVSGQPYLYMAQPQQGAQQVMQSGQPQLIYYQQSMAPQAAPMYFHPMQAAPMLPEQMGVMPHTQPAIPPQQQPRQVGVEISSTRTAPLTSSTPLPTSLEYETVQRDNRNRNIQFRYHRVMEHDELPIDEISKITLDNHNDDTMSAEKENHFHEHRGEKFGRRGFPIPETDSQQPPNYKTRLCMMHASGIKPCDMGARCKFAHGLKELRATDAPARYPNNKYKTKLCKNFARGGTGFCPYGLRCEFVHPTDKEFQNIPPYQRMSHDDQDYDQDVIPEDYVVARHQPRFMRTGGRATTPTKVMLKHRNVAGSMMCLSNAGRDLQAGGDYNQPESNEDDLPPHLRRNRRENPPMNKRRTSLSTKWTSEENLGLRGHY

[20] = Luminescence Cell-Based Dose Retest to Confirm Inhibitors of Cancer Stem Cells. [Related pubchem assays (depositor defined):AID2717, AID2721]; assay type: functional; conditions: Homo sapiens
[21] = target: Cytochrome P450 3A4 (Homo sapiens, UniProt P08684);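 also: CYP3A4 tested as one member of a cytochrome P450 panel screen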
Sequence of Cytochrome P450 3A4 (P08684 whole entry): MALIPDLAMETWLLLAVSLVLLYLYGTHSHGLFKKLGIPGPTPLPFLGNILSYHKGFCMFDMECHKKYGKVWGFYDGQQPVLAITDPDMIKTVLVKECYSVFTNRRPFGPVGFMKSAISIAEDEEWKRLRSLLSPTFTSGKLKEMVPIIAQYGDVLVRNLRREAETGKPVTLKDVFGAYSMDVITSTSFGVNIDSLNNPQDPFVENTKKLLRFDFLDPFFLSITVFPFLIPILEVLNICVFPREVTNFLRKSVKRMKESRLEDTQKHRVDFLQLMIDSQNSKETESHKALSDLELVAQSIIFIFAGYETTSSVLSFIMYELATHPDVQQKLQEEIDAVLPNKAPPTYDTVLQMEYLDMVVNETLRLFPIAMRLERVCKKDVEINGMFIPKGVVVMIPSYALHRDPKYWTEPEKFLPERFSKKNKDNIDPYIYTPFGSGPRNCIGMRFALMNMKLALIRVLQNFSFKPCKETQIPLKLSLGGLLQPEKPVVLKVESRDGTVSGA

[22] = target: Paired box protein Pax-8 (Homo sapiens, UniProt Q06710); assay: PAX8 transcriptional activity inhibition in RMG-I – RMG-I cells, luciferase, cherry-pick, dose response (AID 687027); assay type: functional, cell-based;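 also: luciferase reporter driven by Pax8 target thyroperoxidase promoter measured by SteadyGlo luminescence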
Sequence of Paired box protein Pax-8 (Q06710 whole entry): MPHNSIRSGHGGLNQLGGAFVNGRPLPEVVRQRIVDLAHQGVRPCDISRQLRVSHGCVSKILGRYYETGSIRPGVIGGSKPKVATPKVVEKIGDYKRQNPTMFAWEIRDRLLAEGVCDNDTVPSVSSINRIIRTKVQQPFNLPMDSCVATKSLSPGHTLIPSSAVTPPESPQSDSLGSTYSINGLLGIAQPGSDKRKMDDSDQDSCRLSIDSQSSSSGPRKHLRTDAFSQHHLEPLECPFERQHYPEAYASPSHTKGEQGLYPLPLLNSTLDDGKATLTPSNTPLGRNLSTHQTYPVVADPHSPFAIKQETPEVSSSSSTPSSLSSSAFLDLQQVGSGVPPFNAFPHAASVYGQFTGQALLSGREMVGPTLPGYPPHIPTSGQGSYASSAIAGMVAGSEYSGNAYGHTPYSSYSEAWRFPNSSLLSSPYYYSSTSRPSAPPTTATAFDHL

For `CCc1ccc(Oc2coc3cc(OCC(=O)Nc4cc(C)ccc4C)ccc3c2=O)cc1`, the EC50 [1] was 18.5 µM (active), the EC50 [2] was 14.8 µM (active) and the EC50 [3] was 9.97 µM (active).

For `O=[N+]([O-])c1cccc(C(=S)N2CCN(c3ccc(F)cc3)CC2)c1`, the IC50 [4] was > 66 µM (inactive) and the IC50 [5] was > 66 µM (inactive).

In the case of `O=C(O)CCCCCN1C(=O)/C(=C\c2ccncc2)SC1=S`, the EC50 [6] is reported as 6.7 µM (inconclusive), the EC50 [7] is reported as 1.45 µM (active) and the IC50 [8] is reported as 23.6 µM (active).

In the case of `COc1ccc2cc3c(N)nn(C(=O)C4CCC(C(C)(C)C)CC4)c3nc2c1` (stereo not given), the EC50 [1] is reported as 51.1 µM (active), the EC50 [9] is reported as 2.15 µM (active) and the EC50 [2] is reported as 9.82 µM (active). For the same compound, the EC50 [3] was 12.3 µM (active), the EC50 [10] was > 150 µM (not active) and the EC50 [11] was 4.71 µM (active).

With `Cc1nn(Cc2ccc(Cl)cc2)c(C)c1NC(=O)c1cc(C(C)C)on1` the AC50 [12] was 6.2 µM (active), the AC50 [13] was 67 µM (active) and the AC50 [14] was 9.1 µM (active).

With `O=C(Nc1nnc(-c2cccs2)o1)c1cccc(F)c1` the EC50 [6] was > 160 µM (inactive), the EC50 [7] was 1.25 µM (active) and the EC50 [15] was 10.5 µM (active). For the same compound, the EC50 [16] was 8.96 µM (active).

In the case of `C=CCNc1nc(N)c([N+](=O)[O-])c(N2CCCCCC2)n1`, the EC50 [1] is reported as > 120 µM (not active), the EC50 [2] is reported as > 120 µM (not active) and the EC50 [3] is reported as 26.7 µM (active).

In the case of `S=C(NCCCCN(Cc1ccc(Cl)cc1)c1ccc(Br)cn1)NCCCc1cnc[nH]1`, the AC50 [12] is reported as 7.24 µM (active), the AC50 [13] is reported as 19.5 µM (active) and the AC50 [14] is reported as 39.3 µM (active).

In the case of `CCCNC(=O)c1ccc2c(O)c(O)c(-c3ccc(Cl)c([N+](=O)[O-])c3)nc2c1`, the EC50 [6] is reported as > 150 µM (inactive), the EC50 [7] is reported as 2.18 µM (active) and the AC50 [17] is reported as 5.06 µM (active).

With `COc1ccc(C)cc1N(C(=O)c1ccccc1F)c1nc2ccccc2s1` the EC50 [1] was > 120 µM (not active), the EC50 [2] was > 120 µM (not active) and the EC50 [3] was > 120 µM (not active).

With `Cn1c(C(=O)NC2CCCCCC2)cc2c(=O)n(C)c3ccccc3c21` the EC50 [15] was 24.4 µM (active) and the EC50 [16] was 21.1 µM (active).

In the case of `Cn1c(COc2ccc(Br)cc2)nnc1SC1CCc2ccccc2C1=O` (stereo not given), the AC50 [12] is reported as 35.2 µM (active), the AC50 [13] is reported as 58.9 µM (active) and the AC50 [14] is reported as 12.5 µM (active).

For `Cc1c(Cc2ccccc2)sc(NC(=O)/C=C/c2cccc3ccccc23)c1C(N)=O`, the EC50 [1] was 13.3 µM (inconclusive), the EC50 [2] was 10.9 µM (active) and the EC50 [3] was 5.84 µM (active).

For `COc1cc(C(CC(=O)N2CCCC2)c2c(OC)cc(OC)c3ccc(=O)oc23)cc(OC)c1OC` (stereo not given), the EC50 [18] was 8.14 µM (inconclusive), the EC50 [19] was 16.2 µM (active) and the IC50 [4] was > 66 µM (inactive). The IC50 [5] was 60.3 µM (inactive).

For `CC(C)C1=C2CCCCC2NC(=O)N1` (stereo not given), the IC50 [4] was > 66 µM (inactive) and the IC50 [5] was > 66 µM (inactive).

For `CCCOc1nc2c(c(=O)n(C)c(=O)n2C)n1Cc1cccc2ccccc12`, the EC50 [15] was 49 µM (active), the EC50 [16] was 27.1 µM (active) and the AC50 [17] was 6.39 µM (active).

In the case of `N#CCSc1nnc(CNc2ccc(F)cc2)o1`, the IC50 [4] is reported as > 66 µM (inactive) and the IC50 [5] is reported as > 66 µM (inactive).

With `O=C(O)c1cccc(NC(=S)NC(=O)c2ccncc2)c1` the IC50 [4] was > 66 µM (inactive) and the IC50 [5] was > 66 µM (inactive).

With `C=CCNC(=S)NS(=O)(=O)c1cccs1` the IC50 [4] was > 66 µM (inactive) and the IC50 [5] was > 66 µM (inactive).

In the case of `O=C(NC(=S)Nc1ccc(S(=O)(=O)N2CCCC2)cc1)c1cccs1`, the IC50 [4] is reported as > 66 µM (inactive) and the IC50 [5] is reported as > 66 µM (inactive).

With `CCOC(=O)C1(Cc2cccc(OC)c2)CCN(C/C=C/c2ccc(OC)cc2)CC1` the AC50 [12] was 4.75 µM (active), the AC50 [13] was 51.6 µM (active) and the AC50 [14] was 5.59 µM (active).

With `Cc1ccc(Cl)cc1NC(=O)c1ccccc1OCC(=O)Nc1ccc(Cl)cc1` the EC50 [15] was 8.82 µM (active), the EC50 [16] was 10.9 µM (active) and the AC50 [20] was 10.6 µM (inconclusive).

With `Cc1cccc(NC(=S)NC(=O)c2cccs2)n1` the IC50 [4] was > 66 µM (inactive), the IC50 [5] was > 66 µM (inactive) and the AC50 [21] was 28.2 µM (inconclusive).

With `OC(CSc1ccccc1Cl)CN1CCN(c2ccc(F)cc2)CC1` (stereo not given) the EC50 [1] was > 120 µM (not active), the EC50 [2] was > 120 µM (not active) and the EC50 [3] was > 120 µM (not active).

For `Cc1oc(-c2ccc(Cl)cc2)nc1CN1CCCC(C(=O)N2CCN(C(=O)c3ccco3)CC2)C1` (stereo not given), the EC50 [15] was 26 µM (active) and the EC50 [16] was 17.3 µM (active).

With `O=C(Nc1nnc(COc2ccc(F)cc2)s1)c1ccco1` the EC50 [6] was > 160 µM (inactive) and the EC50 [7] was 3.15 µM (active).

For `COC(=O)C1=C(c2ccc(F)cc2OCc2ccccc2)C[C@@H]2CC[C@H]1N2C(=O)NCc1ccc(C(F)(F)F)cc1`, the AC50 [12] was 9.14 µM (active), the AC50 [13] was > 70 µM (inactive) and the AC50 [14] was 7.19 µM (active). The AC50 [22] was 10.9 µM (active).

For `COc1ccccc1CNc1nc(NCc2ccccc2SC)c2sccc2n1`, the AC50 [12] was 4.48 µM (active), the AC50 [13] was 21.1 µM (active) and the AC50 [14] was 5.2 µM (active).

In the case of `Cc1nn(-c2ccccc2)c(C)c1/C=N/NC(=O)CSc1nc2ccccc2c(=O)n1-c1ccc(Br)cc1`, the EC50 [15] is reported as 7.38 µM (active) and the EC50 [16] is reported as 7.27 µM (active).

In the case of `Cc1cc(O)c(/C=N/Nc2ccc(Cl)cc2)c(=O)o1`, the EC50 [6] is reported as 29.8 µM (active) and the EC50 [7] is reported as 0.273 µM (active).

In the case of `O=C(N/N=C/c1cc([N+](=O)[O-])ccc1O)C1C2CCCCC21` (stereo not given), the EC50 [6] is reported as > 150 µM (inactive) and the EC50 [7] is reported as 2.35 µM (active).

For `COc1cccc(/N=c2\oc3c(C)ncc(CO)c3cc2C(=O)Nc2ccccc2OC)c1`, the EC50 [1] was > 120 µM (not active), the EC50 [2] was > 120 µM (not active) and the EC50 [3] was > 120 µM (not active).
